# Test results reported in patent US20240174603A1 (Rappta Therapeutics Oy, priority 2021, published 2024).
# Structures can show the parent of a compound that is named as a salt.
# Tested on: LNCaP cells
# Assay: LNCaP cell viability assay (MTS)
# Format: cell-based
# Settings: Homo sapiens, LNCaP cell line, 48 hours
# Outline: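 LNCaP cells (5000/well) treated 24 h after plating with compound at 1–80 µM for 48 h. Relative cell number read by MTS; GI50 from four-parameter variable-slope log(inhibitor) fit with bottom constrained to zero.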
row,Structure (SMILES),GI50 [µM]
1,"CN(C)CC(NS(=O)(=O)c1ccc([N+](=O)[O-])c(OC(F)(F)F)c1)c1ccc(Cl)c(Cl)c1 (stereo not drawn) [Compound 222, N-(1-(3,4-dichlorophenyl)-2-(dimethylamino)ethyl)-4-nitro-3-(trifluoromethoxy)benzenesulfonamide]",1.34
2,"O=S(=O)(NC(CN1CCCCC1)c1ccc(Cl)cc1)c1ccc(OC(F)(F)F)cc1 (stereo not drawn) [Compound 183, N-(1-(4-chlorophenyl)-2-(piperidin-1-yl)ethyl)-4-(trifluoromethoxy)benzenesulfonamide]",33.8

# Same assay, conditions: Homo sapiens, LNCaP, 48 h, LNCaP cell line
row,Structure (SMILES),GI50 [µM]
1,"O=S(=O)(NCC1(Cc2ccc(Br)cc2)CC1)c1ccc(OC(F)(F)F)cc1 [Compound 81, N-((1-(4-bromobenzyl)cyclopropyl)methyl)-4-(trifluoromethoxy)benzenesulfonamide]",40
2,"CC1CC1C(NS(=O)(=O)c1ccc(OC(F)(F)F)cc1)c1ccccc1 (stereo not drawn) [Compound 103, N-((2-methylcyclopropyl)(phenyl)methyl)-4-(trifluoromethoxy)benzenesulfonamide]",20
3,"O=S(=O)(NCC1(c2cccs2)CCCC1)c1ccc(OC(F)(F)F)cc1 [Compound 61, N-((1-(thiophen-2-yl)cyclopentyl)methyl)-4-(trifluoromethoxy)benzenesulfonamide]",38
4,"Cc1cccc(CC(CO)NS(=O)(=O)c2ccc(OC(F)(F)F)cc2)c1 (stereo not drawn) [Compound 9, N-(1-hydroxy-3-(m-tolyl)propan-2-yl)-4-(trifluoromethoxy)benzenesulfonamide]",24.1
5,"CCOC(=O)C(CC1CCOC1)NS(=O)(=O)c1ccc(OC(F)(F)F)cc1 (stereo not drawn) [Compound 110, Ethyl 3-(tetrahydrofuran-3-yl)-2-((4-(trifluoromethoxy)phenyl)sulfonamido)propanoate]",61
6,"CN(C)CC(NS(=O)(=O)c1ccc(F)cc1)c1ccc(Cl)c(Cl)c1 (stereo not drawn) [Compound 130, N-(1-(3,4-dichlorophenyl)-2-(dimethylamino)ethyl)-4-fluorobenzenesulfonamide]",62.4
7,"CC(C)CCOc1ccccc1CCNS(=O)(=O)c1ccc(OC(F)(F)F)cc1 [Compound 55, N-(2-(isopentyloxy)phenethyl)-4-(trifluoromethoxy)benzenesulfonamide]",57
8,"Cc1cccc(C(CN(C)C)NS(=O)(=O)c2ccc(OC(F)(F)F)cc2)c1 (stereo not drawn) [Compound 119, N-(2-(dimethylamino)-1-(m-tolyl)ethyl)-4-(trifluoromethoxy)benzenesulfonamide]",48.5
9,"CN(C)CC(NS(=O)(=O)c1cccc2ccccc12)c1ccc(Cl)c(Cl)c1 (stereo not drawn) [Compound 145, N-(1-(3,4-dichlorophenyl)-2-(dimethylamino)ethyl)naphthalene-1-sulfonamide]",21.7
10,"CN=S(=O)(NC(CN(C)C)c1ccc(Cl)c(Cl)c1)c1ccc(OC(F)(F)F)cc1 (stereo not drawn) [Compound 126, N-(1-(3,4-dichlorophenyl)-2-(dimethylamino)ethyl)-N′-methyl-4-(trifluoromethoxy)benzenesulfonimidamide]",24.9
11,"NC[C@@H](NS(=O)(=O)c1ccc(OC(F)(F)F)cc1)c1ccccc1 [Compound 117, (S)—N-(2-amino-1-phenylethyl)-4-(trifluoromethoxy)benzenesulfonamide]",55
12,"CC(CC1CCCCN1C)NS(=O)(=O)c1ccc(OC(F)(F)F)cc1 (stereo not drawn) [Compound 93, N-(1-(1-methylpiperidin-2-yl)propan-2-yl)-4-(trifluoromethoxy)benzenesulfonamide]",34
13,"O=S(=O)(NCC1(c2cccc(C(F)(F)F)c2)CCC1)c1ccc(OC(F)(F)F)cc1 [Compound 57, 4-(trifluoromethoxy)-N-((1-(3-(trifluoromethyl)phenyl)cyclobutyl)methyl)benzenesulfonamide]",38
14,"CCC(NS(=O)(=O)c1ccc(OC(F)(F)F)cc1)(C(=O)OC)c1ccccc1 (stereo not drawn) [Compound 107, Methyl 2-phenyl-2-((4-(trifluoromethoxy)phenyl)sulfonamido)butanoate]",69
15,"COc1ccc(S(=O)(=O)N2CCC(CNS(=O)(=O)c3ccc(OC(F)(F)F)cc3)CC2)cc1OC [Compound 1, N-((1-((3,4-dimethoxyphenyl)sulfonyl)piperidin-4-yl)methyl)-4-(trifluoromethoxy)benzenesulfonamide]",63.8
16,"O=S(=O)(NCC1(c2cc(C(F)(F)F)ccc2Cl)CC1)c1ccc(OC(F)(F)F)cc1 [Compound 88, N-((1-(2-chloro-5-(trifluoromethyl)phenyl)cyclopropyl)methyl)-4-(trifluoromethoxy)benzenesulfonamide]",25
17,"O=[N+]([O-])c1ccc(S(=O)(=O)NCCNS(=O)(=O)c2ccc(OC(F)(F)F)cc2)cc1 [Compound 108, 4-nitro-N-(2-((4-(trifluoromethoxy)phenyl)sulfonamido)ethyl)benzenesulfonamide]",65
18,"C=CCCC(NS(=O)(=O)c1ccc(OC(F)(F)F)cc1)c1ccc(C(F)(F)F)cc1 (stereo not drawn) [Compound 71, 4-(trifluoromethoxy)-N-(1-(4-(trifluoromethyl)phenyl)pent-4-en-1-yl)benzenesulfonamide]",20
19,CCOC(=O)CC(NS(=O)(=O)c1ccc(OC(F)(F)F)cc1)c1ccc(C)cc1 (stereo not drawn) [Compound 24],44.2
20,"CC(C)N(C)c1ccccc1CNS(=O)(=O)c1ccc(OC(F)(F)F)cc1 [Compound 58, N-(2-(isopropyl(methyl)amino)benzyl)-4-(trifluoromethoxy)benzenesulfonamide]",20
21,"CN(C)CC(NS(=O)(=O)c1ccc2ccccc2c1)c1ccc(Cl)c(Cl)c1 (stereo not drawn) [Compound 146, N-(1-(3,4-dichlorophenyl)-2-(dimethylamino)ethyl)naphthalene-2-sulfonamide]",23.8
22,"CCOC(=O)CC(NS(=O)(=O)c1ccc(OC(F)(F)F)cc1)c1ccc(OC(C)C)c(OC)c1 (stereo not drawn) [Compound 68, Ethyl 3-(4-isopropoxy-3-methoxyphenyl)-3-((4-(trifluoromethoxy)phenyl)sulfonamido)propanoate]",72

# Continued, values first:
row,GI50 [µM],Structure (SMILES)
1,1.92,"CC(CN(C)C)NS(=O)(=O)c1ccc(OC(F)(F)F)c([N+](=O)[O-])c1 (stereo not drawn) [Compound 254, N-(1-(dimethylamino)propan-2-yl)-3-nitro-4-(trifluoromethoxy)benzenesulfonamide]"
2,21.8,"CN(C)CC(NS(=O)(=O)c1ccc(OCC2CC2)cc1)c1ccc(Cl)c(Cl)c1 (stereo not drawn) [Compound 207, 4-(cyclopropylmethoxy)-N-(1-(3,4-dichlorophenyl)-2-(dimethylamino)ethyl)benzenesulfonamide]"
3,42.4,"CN(C)CC(NS(=O)(=O)c1ccc(OC(F)(F)F)cc1)c1ccc(F)c(Cl)c1 (stereo not drawn) [Compound 167, N-(1-(3-chloro-4-fluorophenyl)-2-(dimethylamino)ethyl)-4-(trifluoromethoxy)benzenesulfonamide]"
4,59.9,"O=S(=O)(NCC1(c2ccc(Cl)cc2)CC1)c1ccc(OC(F)(F)F)cc1 [Compound 228, N-((1-(4-chlorophenyl)cyclopropyl)methyl)-4-(trifluoromethoxy)benzenesulfonamide]"
5,22.4,"CN(C)CC(NS(=O)(=O)c1ccc(NC2CCCC2)cc1)c1ccc(Cl)c(Cl)c1 (stereo not drawn) [Compound 251, 4-(cyclopentylamino)-N-(1-(3,4-dichlorophenyl)-2-(dimethylamino)ethyl)benzenesulfonamide]"
6,21.3,"CN(C)CC(NS(=O)(=O)c1ccc(OC(F)(F)F)cc1N)c1ccc(Cl)c(Cl)c1 (stereo not drawn) [Compound 155, 2-amino-N-(1-(3,4-dichlorophenyl)-2-(dimethylamino)ethyl)-4-(trifluoromethoxy)benzenesulfonamide]"
7,12.1,"CN(C)CC(NS(=O)(=O)c1ccc(OC(F)(F)F)c(Cl)c1)c1ccc(Cl)c(Cl)c1 (stereo not drawn) [Compound 152, 3-chloro-N-(1-(3,4-dichlorophenyl)-2-(dimethylamino)ethyl)-4-(trifluoromethoxy)benzenesulfonamide]"
8,21.9,"CN(C)CC(NS(=O)(=O)c1ccc(Oc2ccccc2C(F)(F)F)cc1)c1ccc(Cl)c(Cl)c1 (stereo not drawn) [Compound 238, N-(1-(3,4-dichlorophenyl)-2-(dimethylamino)ethyl)-4-(2-(trifluoromethyl)phenoxy)benzenesulfonamide]"
9,15.9,"CC(C)(C)OC(=O)NCC(NS(=O)(=O)c1ccc(OC(F)(F)F)cc1)c1ccc(Cl)c(Cl)c1 (stereo not drawn) [Compound 224, tert-butyl (2-(3,4-dichlorophenyl)-2-((4-(trifluoromethoxy)phenyl)sulfonamido)ethyl)carbamate]"
10,21.8,"NCC(NS(=O)(=O)c1ccc(OC(F)(F)F)cc1)c1ccc(Cl)c(Cl)c1 (stereo not drawn) [Compound 225, N-(2-amino-1-(3,4-dichlorophenyl)ethyl)-4-(trifluoromethoxy)benzenesulfonamide hydrochloride]"
11,25.4,"CN(C)CC(NS(=O)(=O)c1ccc(C(F)(F)F)cc1)c1ccc(Cl)c(Cl)c1 (stereo not drawn) [Compound 161, N-(1-(3,4-dichlorophenyl)-2-(dimethylamino)ethyl)-4-(trifluoromethyl)benzenesulfonamide]"
12,59.6,"Cc1ccccc1C(CN(C)C)NS(=O)(=O)c1ccc(OC(F)(F)F)cc1 (stereo not drawn) [Compound 150, N-(2-(dimethylamino)-1-(o-tolyl)ethyl)-4-(trifluoromethoxy)benzenesulfonamide]"
13,23.6,"CN(C)CC(NS(=O)(=O)c1ccc(OC(F)(F)F)cc1Cl)c1ccc(Cl)c(Cl)c1 (stereo not drawn) [Compound 151, 2-chloro-N-(1-(3,4-dichlorophenyl)-2-(dimethylamino)ethyl)-4-(trifluoromethoxy)benzenesulfonamide]"

# Same assay, conditions: LNCaP cell line, 48 hours
row,GI50 [µM],Structure (SMILES)
1,6.04,"CN(C)CC(NS(=O)(=O)c1ccc(Oc2ccc(C(F)(F)F)cc2)cc1)c1ccc(Cl)c(Cl)c1 (single isomer, unassigned) [Compound 172, N-(1-(3,4-dichlorophenyl)-2-(dimethylamino)ethyl)-4-(4-(trifluoromethyl)phenoxy)benzenesulfonamide]"
2,13,"CN(C)CC(NS(=O)(=O)c1ccc(Oc2ccc(C(F)(F)F)cc2)cc1)c1ccc(Cl)c(Cl)c1 (single isomer, unassigned) [Compound 173, N-(1-(3,4-dichlorophenyl)-2-(dimethylamino)ethyl)-4-(4-(trifluoromethyl)phenoxy)benzenesulfonamide]"
